Test results published in patent publication US20120178815A1, “Compositions of (-)-E-10-OH-NT and Methods for Their Synthesis and Use” (Adolor Corporation, priority 2007, published 2012).
Read-outs that look alike come from different tables or passages of the source.

Key:
α2c adrenergic receptor = biological target: T1, α2c adrenergic receptor (Homo sapiens, UniProt P18825); test: α2c adrenergic receptor binding, [3H]RX821002; conditions: for inhibition at 10 µM: read-out: α2c adrenergic receptor, % inhib. at 10 μM
T1 construct: expressed in transfected cells; host or cells: CHO cells
T1 sequence (P18825 1-462): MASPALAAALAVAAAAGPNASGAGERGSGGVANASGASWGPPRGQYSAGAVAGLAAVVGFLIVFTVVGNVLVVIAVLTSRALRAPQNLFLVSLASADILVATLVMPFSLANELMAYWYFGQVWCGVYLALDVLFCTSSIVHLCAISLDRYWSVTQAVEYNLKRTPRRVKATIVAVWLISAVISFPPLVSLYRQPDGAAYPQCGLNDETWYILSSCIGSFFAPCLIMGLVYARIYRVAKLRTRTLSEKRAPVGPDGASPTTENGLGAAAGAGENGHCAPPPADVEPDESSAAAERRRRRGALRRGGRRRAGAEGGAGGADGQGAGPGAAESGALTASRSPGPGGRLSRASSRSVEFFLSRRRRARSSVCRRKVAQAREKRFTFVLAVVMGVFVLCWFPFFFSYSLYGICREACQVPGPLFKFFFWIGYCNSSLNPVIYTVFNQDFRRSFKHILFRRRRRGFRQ
Procedure: Nonspecific binding was determined in the presence of 100 μM (−)-epinephrine. Bound radioactivity was determined by scintillation spectroscopy.

[1] = biological target: T2, α1a adrenergic receptor (rat salivary gland membranes) (Rattus norvegicus, UniProt P43140); test: α1a adrenergic receptor binding, [3H]prazocine
T2 construct: tested using membranes prepared from rat salivary gland; from tissue; host or cells: rat salivary gland membranes
T2 sequence (P43140 1-466): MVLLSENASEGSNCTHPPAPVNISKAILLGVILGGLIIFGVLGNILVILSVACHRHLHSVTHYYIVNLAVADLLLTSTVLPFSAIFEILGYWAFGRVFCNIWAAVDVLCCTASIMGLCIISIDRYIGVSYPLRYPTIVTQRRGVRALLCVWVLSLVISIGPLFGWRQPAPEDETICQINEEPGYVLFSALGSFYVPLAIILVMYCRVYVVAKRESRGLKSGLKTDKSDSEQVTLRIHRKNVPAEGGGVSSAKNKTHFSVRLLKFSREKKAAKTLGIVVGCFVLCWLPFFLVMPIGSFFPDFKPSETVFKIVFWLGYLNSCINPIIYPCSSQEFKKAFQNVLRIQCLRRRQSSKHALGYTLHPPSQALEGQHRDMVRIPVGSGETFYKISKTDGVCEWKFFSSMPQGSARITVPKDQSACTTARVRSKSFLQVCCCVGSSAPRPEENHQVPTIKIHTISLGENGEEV
Procedure: The affinities of AT, NT, (+)-E-10-OH-NT and (−)-E-OH-NT for the α1a, α1b, α2a, α2b, and α2c adrenergic receptors was tested. Affinity for the α1a adrenergic receptor was tested using membranes prepared from rat salivary gland. [^3H]Prazocine (0.06 nM) was incubated in the presence of various concentrations of test compounds with the membranes for 1 hour at 22° C. Nonspecific binding was determined in the presence of 10 μM phentolamine. Bound radioactivity was determined by scintillation spectroscopy.

[2] = biological target: T3, human muscarinic receptor M2 (Homo sapiens, UniProt P08172); test: Muscarinic M2 receptor binding, [3H]AF-DX384; conditions: read-out: Affinity for Muscarinic Receptors, M2, Ki
T3 construct: expressed in transfected cells; host or cells: CHO cells (membranes)
T3 sequence (P08172 1-466): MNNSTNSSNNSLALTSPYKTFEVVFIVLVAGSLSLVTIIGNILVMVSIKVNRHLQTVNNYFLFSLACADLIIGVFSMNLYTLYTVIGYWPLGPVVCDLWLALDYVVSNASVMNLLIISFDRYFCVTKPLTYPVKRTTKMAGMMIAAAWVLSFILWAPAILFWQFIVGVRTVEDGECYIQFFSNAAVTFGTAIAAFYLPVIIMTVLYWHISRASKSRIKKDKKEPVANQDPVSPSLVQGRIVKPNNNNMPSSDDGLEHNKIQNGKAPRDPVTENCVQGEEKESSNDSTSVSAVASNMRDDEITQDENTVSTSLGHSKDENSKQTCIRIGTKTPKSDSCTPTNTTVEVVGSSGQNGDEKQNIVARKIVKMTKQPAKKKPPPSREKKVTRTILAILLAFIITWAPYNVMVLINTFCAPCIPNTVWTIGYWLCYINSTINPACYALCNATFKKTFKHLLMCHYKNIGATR
Procedure: Protocol. […] Bound radioactivity was determined by scintillation spectroscopy. Non-specific binding was defined as the amount of bound radioligand in the presence of 1.0 μM atropine. Radioligand for the M1 receptor was [^3H]pirenzepine (2 nM). Radioligand for the M2 receptor was [^3H]AF-DX384 (2 nM). Radioligand for the M3, M4, and M5 receptors was [^3H]4-DAMP.

[3] = biological target: T4, human dopamine transporter (hDAT) (Homo sapiens, UniProt Q01959); test: DA transporter competitive binding assay, [3H]BTCP; conditions: for inhibition at 10 µM: read-out: Monoamine Transporter Affinity, DA, % inhib at 10 μM; for Ki: read-out: Monoamine Transporter Affinity, DA, Ki
T4 construct: expressed in transfected cells; host or cells: CHO cells (membranes)
T4 sequence (Q01959 whole entry): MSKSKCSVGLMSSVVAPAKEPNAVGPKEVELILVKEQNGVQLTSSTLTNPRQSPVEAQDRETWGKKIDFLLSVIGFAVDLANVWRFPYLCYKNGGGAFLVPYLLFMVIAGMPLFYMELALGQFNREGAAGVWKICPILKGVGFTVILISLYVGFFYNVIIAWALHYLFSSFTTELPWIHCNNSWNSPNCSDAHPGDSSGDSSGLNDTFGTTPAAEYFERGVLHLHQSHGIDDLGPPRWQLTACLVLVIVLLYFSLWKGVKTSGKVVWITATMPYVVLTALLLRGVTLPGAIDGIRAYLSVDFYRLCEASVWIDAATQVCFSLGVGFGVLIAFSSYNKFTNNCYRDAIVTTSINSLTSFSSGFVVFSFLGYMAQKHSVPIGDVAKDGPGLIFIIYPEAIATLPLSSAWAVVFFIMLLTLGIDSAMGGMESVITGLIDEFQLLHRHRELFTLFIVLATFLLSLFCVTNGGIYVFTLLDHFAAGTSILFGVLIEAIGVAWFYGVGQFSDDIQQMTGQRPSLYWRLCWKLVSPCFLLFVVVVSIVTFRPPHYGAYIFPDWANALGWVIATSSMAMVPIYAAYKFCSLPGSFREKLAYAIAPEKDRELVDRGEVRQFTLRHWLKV
Procedure: For the DA transporter binding assay, [^3H]N-[1-(2-benzo[b]thiophenyl)cyclohexyl]-piperidine ([^3H]BTCP) (4.0 nM) was incubated for 2 hr at 4° C. with membranes prepared from Chinese hamster ovary (CHO) cells heterologously expressing the cloned human dopamine transporter (hDAT). Various concentrations of test compound were added and bound radioactivity was determined by scintillation spectroscopy. Non-specific binding was defined as binding that occurred in the presence of 10 μM BTCP. The Ki values for the various test compounds were determined using standard methods.

α2a adrenergic receptor = biological target: T5, α2a adrenergic receptor (Homo sapiens, UniProt P08913); test: α2a adrenergic receptor binding, [3H]RX821002; conditions: for inhibition at 10 µM: read-out: α2a adrenergic receptor, % inhib. at 10 μM
T5 construct: expressed in transfected cells; host or cells: CHO cells
T5 sequence (P08913 1-465): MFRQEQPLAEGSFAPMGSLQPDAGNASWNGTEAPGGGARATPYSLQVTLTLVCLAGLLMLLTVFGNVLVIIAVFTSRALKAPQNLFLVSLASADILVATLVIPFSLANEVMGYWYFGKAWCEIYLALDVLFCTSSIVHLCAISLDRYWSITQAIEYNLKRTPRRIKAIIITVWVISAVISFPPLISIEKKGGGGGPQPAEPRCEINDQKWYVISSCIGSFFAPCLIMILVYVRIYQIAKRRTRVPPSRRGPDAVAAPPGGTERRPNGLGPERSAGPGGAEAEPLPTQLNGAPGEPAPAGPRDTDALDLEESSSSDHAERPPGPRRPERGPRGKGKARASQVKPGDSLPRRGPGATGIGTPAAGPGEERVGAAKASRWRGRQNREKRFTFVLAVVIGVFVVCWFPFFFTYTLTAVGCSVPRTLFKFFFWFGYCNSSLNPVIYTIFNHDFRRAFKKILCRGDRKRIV
Procedure: Affinity for the α2a adrenergic receptor was tested using CHO cells heterologously expressing the cloned human receptor that were incubated with [^3H]RX821002 (1.0 nM) in the presence of various concentrations of test compounds for 1 hour at 22° C. Nonspecific binding was determined in the presence of 100 μM (−)-epinephrine. Bound radioactivity was determined by scintillation spectroscopy.

[4] = read-out: Affinity at α1a adrenergic receptor, Ki

Row | SMILES | inhibition at 10 µM (α2c adrenergic receptor) | Ki [1, 4] | Ki [2] | inhibition at 10 µM [3] | Ki [3] | inhibition at 10 µM (α2a adrenergic receptor) | Ki (α2c adrenergic receptor; read-out: Affinity at α2c adrenergic receptor, Ki) | Ki (α2a adrenergic receptor; read-out: Affinity at α2a adrenergic receptor, Ki) | Ki [1]
1 | CNCC/C=C1\c2ccccc2C[C@@H](O)c2ccccc21 (stereo in doubt) [(−)-E-10-OH-NT] | 30% | 3 µM | 2.6 µM | 3% | > 1 µM | 23% |  |  | 
2 | CNCC/C=C1\c2ccccc2C[C@H](O)c2ccccc21 (stereo in doubt) [(+)-E-10-OH-NT] | 35% | 0.7 µM | 4.2 µM | 25% | > 1 µM | 15% |  |  | 
3 | CN(C)CCC=C1c2ccccc2CCc2ccccc21 [AT, amitriptyline, reference compound] |  | 0.021 µM |  |  | 2.1 µM |  | 0.013 µM | 0.57 µM | 
4 | CNCCC=C1c2ccccc2CCc2ccccc21 [NT, nortriptyline, reference compound] |  |  | 0.22 µM |  |  |  |  |  | 0.06 µM
